What all share (type): cell-based
Assay [1] addresses T1, hPPARδ (Homo sapiens, UniProt Q03181).
T1 construct: corresponding to the DEF domains (structural elements of the promoter of the PPARs: D=hinge, EF=ligand fixation domain and AF2 fixation site); expressed in transfected cells; host or cells: COS-7 (monkey kidney fibroblasts)
T1 sequence (Q03181 211-439 limits assumed): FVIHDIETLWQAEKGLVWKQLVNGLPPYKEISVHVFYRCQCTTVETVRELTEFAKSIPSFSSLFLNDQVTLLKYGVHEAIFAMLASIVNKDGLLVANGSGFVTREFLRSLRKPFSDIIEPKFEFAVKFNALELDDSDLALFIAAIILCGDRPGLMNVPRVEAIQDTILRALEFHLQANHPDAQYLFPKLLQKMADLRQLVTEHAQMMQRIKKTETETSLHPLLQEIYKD
As to the kind of experiment: Gal4-hPPARδ chimera transactivation (luciferase) in COS-7 cells. As to conditions: COS-7 cells, Gal4-hPPARδ, 24 hours; for EC50: luciferase, read-out: PPARδ EC50; for Emax: relative to maximum activation obtained with GW501516, read-out: PPARδ TOP % (maximum activation). As to the method:
(§1) Activation of PPARs is evaluated in vitro on a line of monkey kidney fibroblasts (COS-7) by measuring the transcriptional activity of chimeras consisting of the DNA binding domain of Gal4 transcription factor of yeast and of the ligand binding domain of the various PPARs of human origin (hPPAR).
(§2) The COS-7 cells are from ATCC and are cultivated in DMEM medium supplemented with 10% (vol/vol) of fetal calf serum, 1% of penicillin/streptomycin (Biochrom, AG), 1% of amino acids (Gibco) and 1% of sodium pyruvate (Gibco). The cells are incubated at 37° C. in a humid atmosphere containing 5% CO2.
(§3) The plasmids Gal4(RE)_TkpGL3, pGal4-hPPARα, pGal4-hPPARγ, pGal4-hPPARδ and pGal4-φ are described in the literature (Raspe E et al., 1999). The constructs pGal4-hPPARα, pGal4-hPPARγ and pGal4-hPPARδ were obtained by cloning, into the pGal4-φ vector, DNA fragments amplified by PCR corresponding to the DEF domains (structural elements of the promoter of the PPARs: D=hinge, EF=ligand fixation domain and AF2 fixation site) of the human nuclear receptors PPAα, PPARγ and PPARδ.
(§4) The adherent COS-7 cells are transfected with 40 μg of DNA per 225 cm^2 flask, with a pGal4-hPPAR/Gal4(RE)_TkpGL3 ratio of 1/10, in the presence of 10% of fetal calf serum. The cells are then detached and seeded in the absence of serum in 384-well plates (2×10^4 cells/well) then incubated for 4 hours at 37° C. The compounds are then diluted in a 96-well plate and then transferred to the 384-well plate. Activation with the test compounds is effected for a further 24 hours at 37° C. in the presence of 1% of synthetic serum Ultroser™ (Biosepra). These last 2 stages are automated by means of a Genesis Freedom 200™ station (Tecan). At the end of the experiment, the cells are lysed and the luciferase activity is determined using the Steady-Lite™ HTS (Perkin Elmer) according to the supplier's recommendations.
(§5) The test data are summarized in Table 8-1 below, which presents, for each compound, the values of maximum activation (TOP %) and the EC50 values measured for each isoform of PPAR.

The target of assay [2] is T2, hPPARα (Homo sapiens, UniProt Q07869).
T2 construct: corresponding to the DEF domains (structural elements of the promoter of the PPARs: D=hinge, EF=ligand fixation domain and AF2 fixation site); expressed in transfected cells; host or cells: COS-7 (monkey kidney fibroblasts)
T2 sequence (Q07869 239-466 limits assumed): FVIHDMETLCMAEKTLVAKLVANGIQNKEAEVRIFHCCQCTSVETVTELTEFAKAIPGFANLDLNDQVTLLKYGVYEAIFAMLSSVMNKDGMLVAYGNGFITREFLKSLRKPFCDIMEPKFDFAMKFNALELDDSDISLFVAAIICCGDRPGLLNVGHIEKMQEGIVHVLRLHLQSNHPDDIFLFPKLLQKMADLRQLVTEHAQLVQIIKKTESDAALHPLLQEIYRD
As to the kind of experiment: Gal4-hPPARα chimera transactivation (luciferase) in COS-7 cells. As to conditions: for EC50: luciferase, read-out: PPARα EC50; for Emax: read-out: PPARα TOP % (maximum activation). How it is done:
as §1, §2, §3, §4
The test data are summarized in Table 8-1 below, which presents, for each compound, the values of maximum activation (TOP %) and the EC50 values measured for each isoform of PPAR. The values of maximum activation are expressed in percentages relative to the maximum activations obtained with reference agonists: fenofibric acid for PPARα, rosiglitazone for PPARγ and 2-methyl-4-((4-methyl-2-(4-trifluoromethylphenyl)-1,3-thiazol-5-yl)-methylsulfanyl)phenoxyacetic acid (also called GW501516) for PPARδ.

Assay [3] has as its target T3, hPPARγ (Homo sapiens, UniProt P37231).
T3 construct: corresponding to the DEF domains (structural elements of the promoter of the PPARs: D=hinge, EF=ligand fixation domain and AF2 fixation site); expressed in transfected cells; host or cells: COS-7 (monkey kidney fibroblasts)
T3 sequence (P37231 238-503 limits assumed): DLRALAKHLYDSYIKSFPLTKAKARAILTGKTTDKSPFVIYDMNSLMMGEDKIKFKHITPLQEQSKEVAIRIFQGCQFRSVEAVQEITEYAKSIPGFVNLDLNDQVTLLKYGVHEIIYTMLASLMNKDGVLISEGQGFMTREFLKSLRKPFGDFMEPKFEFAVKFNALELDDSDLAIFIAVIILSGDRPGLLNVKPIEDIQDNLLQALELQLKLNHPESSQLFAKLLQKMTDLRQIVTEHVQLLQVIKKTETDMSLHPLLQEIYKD
As to the kind of experiment: Gal4-hPPARγ chimera transactivation (luciferase) in COS-7 cells. The following applies: 24 hours; for EC50: luciferase, read-out: PPARγ EC50; for Emax: relative to maximum activation obtained with rosiglitazone, read-out: PPARγ TOP % (maximum activation). How it is done: as §1, §2, §3, §4, §5

The mark [4] stands for this setting: COS-7 cells, Gal4-hPPARα, 24 hours.
Setting [5] is: relative to maximum activation obtained with fenofibric acid, COS-7 cells, Gal4-hPPARα, 24 hours.

As a reminder, the EC50 is the concentration that produces a half-maximal response. In the case of `COc1nc(-c2ccccc2)ccc1CNc1ccc(SC(C)(C)C(=O)O)cc1` [Cpd 11, 2-(4-(((2-methoxy-6-phenylpyridin-3-yl)methyl)amino)phenylthio)-2-methyl-propanoic acid], the EC50 in assay [1] was 3 µM; in assay [2] (setting [4]) it was 0.022 µM; in assay [3] it was 2.45 µM. Further, the Emax in assay [1] came out at 85.7%; in assay [2] (setting [5]), 86.2%; in assay [3] it was 54.5%. For the same molecule, in assay [2] (Gal4-hPPAR chimeras, COS-7), the “selectivity among hPPAR isoforms (hPPARα)” value is listed as “high selectivity for hPPARα”.

Regarding `COc1nc(-c2ccccc2)ccc1CSc1ccc(CCC(=O)O)cc1` [Cpd 37, 3-(4-((2-methoxy-6-phenylpyridin-3-yl)methylthio)phenyl)propanoic acid], the EC50 was found to be 12.7 µM in assay [1], 9.95 µM in assay [2] (setting [4]) and 9.17 µM in assay [3]. In addition, the results for the Emax in assay [1], in assay [2] (setting [5]) and in assay [3] were 94.7%, 65.5% and 98.5%, respectively.

`COc1nc(-c2ccccc2)ccc1CN(C)c1ccc(CCC(=O)O)cc1` [Cpd 33, 3-(4-(((2-methoxy-6-phenylpyridin-3-yl)methyl)(methyl)amino)phenyl)-propanoic acid]: the figures for the EC50 in assay [1], in assay [2] (setting [4]) and in assay [3] were 10.5 µM, 4.55 µM and 12.4 µM, respectively. Besides, the results for the Emax in assay [1], in assay [2] (setting [5]) and in assay [3] were 74.5%, 49.9% and 65%, respectively.

For `CC(C)(C)Oc1nc(-c2ccccc2)ccc1COc1ccc(OC(C)(C)C(=O)O)cc1` [Cpd 6, 2-(4-((2-tert-butyloxy-6-phenylpyridin-3-yl)methoxy)phenoxy)-2-methyl-propanoic acid], the EC50 in assay [1] amounted to 0.489 µM; in assay [2] (setting [4]) it was 5.43 µM; in assay [3], 11.8 µM. In addition, the Emax came out at 70.7% in assay [1], 30.3% in assay [2] (setting [5]) and 17.3% in assay [3].

As to `COc1nc(-c2ccc(C(F)(F)F)cc2)ccc1CNc1ccc(SC(C)(C)C(=O)O)cc1` [Cpd 22, 2-(4-(((2-methoxy-6-(4-(trifluoromethyl)phenyl)pyridin-3-yl)methyl)amino)-phenylthio)-2-methylpropanoic acid], the EC50 was determined as 1.15 µM in assay [1] and 1.05 µM in assay [3]. Moreover, the Emax in assay [1] was 102%; in assay [2] (setting [5]), 75.9%; in assay [3], 88.9%.

As for `COc1nc(-c2ccccc2)c(Br)cc1CNc1ccc(SCC(=O)O)cc1` [Cpd 29, 2-(4-(((2-methoxy-5-bromo-6-phenylpyridin-3-yl)methyl)amino)phenylthio)-ethanoic acid], the EC50 is 10.1 µM in assay [1], 3.85 µM in assay [2] (setting [4]) and 8.43 µM in assay [3]. The values for the Emax in assay [1], in assay [2] (setting [5]) and in assay [3] were 85.6%, 59.3% and 57.7%, respectively.

Take `COc1nc(-c2ccccc2)ccc1CNc1cccc(OCC(=O)O)c1` [Cpd 14, 2-(3-(((2-methoxy-6-phenylpyridin-3-yl)methyl)amino)phenoxy)ethanoic acid]: the EC50 amounted to 16.2 µM in assay [1], 33.3 µM in assay [2] (setting [4]) and 24.3 µM in assay [3]. The Emax in assay [1] stood at 103%; in assay [2] (setting [5]), 58.4%; in assay [3] it was 53.7%.

`COc1ncc(-c2ccc(C(F)(F)F)cc2)cc1CNc1ccc(CCC(=O)O)cc1` [Cpd 46, 3-(4-(((2-methoxy-5-(4-(trifluoromethyl)phenyl)pyridin-3-yl)methyl)amino)phenyl)propanoic acid]: the EC50 in assay [1] was determined as 0.028 µM; in assay [2] (setting [4]), 0.622 µM; in assay [3], 1.94 µM. The Emax in assay [1] came out at 107%; in assay [2] (setting [5]) it was 60%; in assay [3] it was 69.4%.

As for `COc1nc(-c2ccccc2)ccc1COc1ccc(OC(C)C(=O)O)cc1` (centres unmarked) [Cpd 3, 2-(4-((2-methoxy-6-phenylpyridin-3-yl)methoxy)phenoxy)propanoic acid], the EC50 stood at 1.2 µM in assay [1], 0.432 µM in assay [2] (setting [4]) and 3.24 µM in assay [3]. Further, the Emax was 114% in assay [1], 68.7% in assay [2] (setting [5]) and 43.6% in assay [3].

For the molecule `COc1nc(-c2ccccc2)ccc1CNc1cc(C)c(OCC(=O)O)c(C)c1` [Cpd 35, 2-(4-(((2-methoxy-6-phenylpyridin-3-yl)methyl)amino)-2,6-dimethyl-phenoxy)ethanoic acid], the EC50 in assay [1] is 1.54 µM; in assay [2] (setting [4]), 0.647 µM; in assay [3], 6.18 µM. Besides, the Emax in assay [1] came out at 13.2%; in assay [2] (setting [5]) it was 26.1%; in assay [3], 38.8%.

In the case of `COc1ncc(-c2ccc(Cl)cc2)cc1CNc1ccc(CCC(=O)O)cc1` [Cpd 49, 3-(4-(((5-(4-chlorophenyl)-2-methoxypyridin-3-yl)methyl)amino)phenyl)-propanoic acid], the EC50 was 0.408 µM in assay [1], 3.62 µM in assay [2] (setting [4]) and 4.04 µM in assay [3]. Besides, the Emax in assay [1] was found to be 123%; in assay [2] (setting [5]), 51.1%; in assay [3], 73.2%.

As for `COc1nc(-c2ccccc2)ccc1CNc1ccc(SC(F)(F)C(=O)O)cc1` [Cpd 27, 2-(4-(((2-methoxy-6-phenylpyridin-3-yl)methyl)amino)phenylthio)-2,2-difluoroethanoic acid], the EC50 in assay [1] was found to be 41.1 µM; in assay [2] (setting [4]) it was 3.64 µM; in assay [3], 10.6 µM. The Emax in assay [1] came to 72.9%; in assay [2] (setting [5]), 99.8%; in assay [3] it was 98.7%.

For `CC(C)Oc1nc(-c2ccccc2)ccc1CNc1ccc(CCC(=O)O)cc1` [Cpd 54, 3-(4-(((2-isopropyloxy-6-phenylpyridin-3-yl)methyl)amino)phenyl)propanoic acid], the EC50 in assay [1] worked out at 3.2 µM; in assay [2] (setting [4]) it was 7.97 µM; in assay [3], 4.85 µM. Further, the figures for the Emax in assay [1], in assay [2] (setting [5]) and in assay [3] were 92.1%, 34.5% and 42.2%, respectively.

For `COc1nc(-c2ccccc2)ccc1CNc1ccc(SCC(=O)O)cc1` [Cpd 16, 2-(4-(((2-methoxy-6-phenylpyridin-3-yl)methyl)amino)phenylthio)ethanoic acid], the EC50 amounted to 3.37 µM in assay [1], 0.51 µM in assay [2] (setting [4]) and 5.18 µM in assay [3]. In addition, the Emax in assay [1] was found to be 85.2%; in assay [2] (setting [5]) it was 78%; in assay [3], 70%.

Take “2-(4-(((2-methoxy-6-furylpyridin-3-yl)methyl)amino)phenylthio)ethanoic acid [Cpd 30]”: in assay [2] (setting [4]), the EC50 is 12.1 µM. In addition, the “PPARα TOP % (maximum activation)” value in assay [2] (setting [5]) is 38.70%.
